Assay results as given in ChEMBL document CHEMBL1649471, “Nonhuman primates are protected from smallpox virus or monkeypox virus challenges by the antiviral drug ST-246” (2009).
Activity calls are given as the source filed them. No cut-off for these calls is given here.

Legend:
[1] = test system: Monkeypox virus; assay: Antiviral activity against Monkeypox virus Zaire '79 infected in cynomolgus monkey assessed as inhibition of virus induced skin lesions at 300 mg/kg/day, po administered 72 hrs post infection measured after 14 days; assay type: functional, organism-based
[2] = test system: Variola virus; assay: (§1) Antiviral activity against 1X10'8 PFU Variola virus Harper infected in cynomolgus monkey assessed as survival of animal at 300 mg/kg/day, po administered immediately post infection followed by 5 ml/kg of 30% suspension of hydrated homogenized monkey biscuit measured up to 28 days; assay type: functional, organism-based
[3] = test system: Variola virus; assay: Antiviral activity against 1X10'8 PFU Variola virus Harper infected in cynomolgus monkey assessed as survival of animal at 300 mg/kg/day, po administered 1 day post infection followed by 5 ml/kg of 30% suspension of hydrated homogenized monkey biscuit measured up to 28 days; assay type: functional, organism-based
[4] = test system: Variola virus; assay: Antiviral activity against 1X10'8 PFU Variola virus Harper infected in cynomolgus monkey assessed as decrease in blood viral load at 300 mg/kg/day, po administered immediately post infection followed by 5 ml/kg of 30% suspension of hydrated homogenized monkey biscuit measured up to 28 days; assay type: functional, organism-based
[5] = test system: Variola virus; assay: Antiviral activity against 1X10'8 PFU Variola virus Harper infected in cynomolgus monkey assessed as decrease in blood viral load at 300 mg/kg/day, po administered 1 day post infection followed by 5 ml/kg of 30% suspension of hydrated homogenized monkey biscuit measured up to 28 days; assay type: functional, organism-based
[6] = test system: Variola virus; assay: (§2) Antiviral activity against 1X10'8 PFU Variola virus Harper infected in cynomolgus monkey assessed as log decrease in blood viral load at 300 mg/kg/day, po administered immediately post infection followed by 5 ml/kg of 30% suspension of hydrated homogenized monkey biscuit measured between day 5 to 8; assay type: functional
[7] = test system: Variola virus; assay: (§3) Antiviral activity against 1X10'8 PFU Variola virus Harper infected in cynomolgus monkey assessed as log decrease in blood viral load at 300 mg/kg/day, po administered 1 day post infection followed by 5 ml/kg of 30% suspension of hydrated homogenized monkey biscuit measured between day 5 to 8; assay type: functional
[8] = test system: Variola virus; assay: as §2, with “inhibition of virus-mediated lesion formation” for “log decrease in blood viral load”; assay type: functional, organism-based
[9] = test system: Variola virus; assay: as §3, with “inhibition of virus-mediated lesion formation” for “log decrease in blood viral load”; assay type: functional, organism-based
[10] = test system: Variola virus; assay: as §1, with “percent hematocrit level in” for “survival of”, “after” for “post”, “11” for “up to 28”, “days post infection” for “days”; assay type: functional
[11] = test system: Variola virus; assay: (§4) Antiviral activity against 1X10'8 PFU Variola virus Harper infected in cynomolgus monkey assessed as platelet count in animal at 300 mg/kg/day, po administered immediately after infection followed by 5 ml/kg of 30% suspension of hydrated homogenized monkey biscuit measured 11 days post infection; assay type: functional
[12] = test system: Variola virus; assay: as §4, with “mean corpuscular hemoglobin concentration” for “platelet count”; assay type: functional
[13] = test system: Variola virus; assay: as §4, with “white blood cell” for “platelet”; assay type: functional
[14] = test system: Variola virus; assay: Antiviral activity against 1X10'8 PFU Variola virus Harper infected in cynomolgus monkey assessed as temperature change in animal at 300 mg/kg/day, po administered immediately after infection followed by 5 ml/kg of 30% suspension of hydrated homogenized monkey biscuit measured 11 days post infection; assay type: functional
[15] = test system: Variola virus; assay: (§5) Antiviral activity against 1X10'8 PFU Variola virus Harper infected in cynomolgus monkey assessed as albumin level in animal at 300 mg/kg/day, po administered immediately after infection followed by 5 ml/kg of 30% suspension of hydrated homogenized monkey biscuit measured 11 days post infection; assay type: functional
[16] = test system: Variola virus; assay: as §5, with “alanine amino transferase” for “albumin”; assay type: functional
[17] = test system: Variola virus; assay: as §5, with “[…]” for “albumin”; assay type: functional
[18] = test system: Variola virus; assay: as §5, with “aspartate amino transferase” for “albumin”; assay type: functional
[19] = test system: Variola virus; assay: as §5, with “blood urea nitrogen” for “albumin”; assay type: functional
[20] = test system: Variola virus; assay: Antiviral activity against 1X10'8 PFU Variola virus Harper infected in cynomolgus monkey assessed as creatinine level in animal at 300 mg/kg/day, po administered immediately after infection followed by 5 ml/kg of 30% suspension of hydrated homogenized monkey biscuit measured 11 days post infection; assay type: functional
[21] = test system: Variola virus; assay: as §5, with “total protein” for “albumin”; assay type: functional
[22] = test system: Variola virus; assay: Antiviral activity against 1X10'8 PFU Variola virus Harper infected in cynomolgus monkey assessed as percent hematocrit level in animal at 300 mg/kg/day, po administered 1 day post infection followed by 5 ml/kg of 30% suspension of hydrated homogenized monkey biscuit measured 11 days post infection; assay type: functional
[23] = test system: Variola virus; assay: (§6) Antiviral activity against 1X10'8 PFU Variola virus Harper infected in cynomolgus monkey assessed as platelet count in animal at 300 mg/kg/day, po administered 1 day post infection followed by 5 ml/kg of 30% suspension of hydrated homogenized monkey biscuit measured 11 days post infection; assay type: functional
[24] = test system: Variola virus; assay: as §6, with “mean corpuscular hemoglobin concentration” for “platelet count”; assay type: functional
[25] = test system: Variola virus; assay: Antiviral activity against 1X10'8 PFU Variola virus Harper infected in cynomolgus monkey assessed as white blood cell count in animal at 300 mg/kg/day, po administered 1 day post infection followed by 5 ml/kg of 30% suspension of hydrated homogenized monkey biscuit measured 11 days post infection; assay type: functional
[26] = test system: Variola virus; assay: Antiviral activity against 1X10'8 PFU Variola virus Harper infected in cynomolgus monkey assessed as temperature change in animal at 300 mg/kg/day, po administered 1 day post infection followed by 5 ml/kg of 30% suspension of hydrated homogenized monkey biscuit measured 11 days post infection; assay type: functional
[27] = test system: Variola virus; assay: (§7) Antiviral activity against 1X10'8 PFU Variola virus Harper infected in cynomolgus monkey assessed as albumin level in animal at 300 mg/kg/day, po administered 1 day post infection followed by 5 ml/kg of 30% suspension of hydrated homogenized monkey biscuit measured 11 days post infection; assay type: functional
[28] = test system: Variola virus; assay: as §7, with “alanine amino transferase” for “albumin”; assay type: functional
[29] = test system: Variola virus; assay: Antiviral activity against 1X10'8 PFU Variola virus Harper infected in cynomolgus monkey assessed as […] level in animal at 300 mg/kg/day, po administered 1 day post infection followed by 5 ml/kg of 30% suspension of hydrated homogenized monkey biscuit measured 11 days post infection; assay type: functional
[30] = test system: Variola virus; assay: as §7, with “aspartate amino transferase” for “albumin”; assay type: functional
[31] = test system: Variola virus; assay: Antiviral activity against 1X10'8 PFU Variola virus Harper infected in cynomolgus monkey assessed as blood urea nitrogen level in animal at 300 mg/kg/day, po administered 1 day post infection followed by 5 ml/kg of 30% suspension of hydrated homogenized monkey biscuit measured 11 days post infection; assay type: functional
[32] = test system: Variola virus; assay: Antiviral activity against 1X10'8 PFU Variola virus Harper infected in cynomolgus monkey assessed as creatinine level in animal at 300 mg/kg/day, po administered 1 day post infection followed by 5 ml/kg of 30% suspension of hydrated homogenized monkey biscuit measured 11 days post infection; assay type: functional
[33] = test system: Variola virus; assay: Antiviral activity against 1X10'8 PFU Variola virus Harper infected in cynomolgus monkey assessed as total protein level in animal at 300 mg/kg/day, po administered 1 day post infection followed by 5 ml/kg of 30% suspension of hydrated homogenized monkey biscuit measured 11 days post infection; assay type: functional
[34] = test system: Variola virus; assay: (§8) Antiviral activity against 1X10'8 PFU Variola virus Harper infected in cynomolgus monkey assessed as platelet count in animal at 300 mg/kg/day, po administered 1 day post infection followed by 5 ml/kg of 30% suspension of hydrated homogenized monkey biscuit measured 9 days post infection; assay type: functional
[35] = test system: Variola virus; assay: as §8, with “mean corpuscular hemoglobin concentration” for “platelet count”; assay type: functional
[36] = test system: Variola virus; assay: Antiviral activity against 1X10'8 PFU Variola virus Harper infected in cynomolgus monkey assessed as creatinine level in animal at 300 mg/kg/day, po administered 1 day post infection followed by 5 ml/kg of 30% suspension of hydrated homogenized monkey biscuit measured 9 days post infection; assay type: functional
[37] = test system: Variola virus; assay: Antiviral activity against 1X10'8 PFU Variola virus Harper infected in cynomolgus monkey assessed as percent hematocrit level in animal at 300 mg/kg/day, po administered 3 days post infection followed by 5 ml/kg of 30% suspension of hydrated homogenized monkey biscuit measured 9 days post infection; assay type: functional
[38] = test system: Variola virus; assay: Antiviral activity against 1X10'8 PFU Variola virus Harper infected in cynomolgus monkey assessed as platelet count in animal at 300 mg/kg/day, po administered 3 days post infection followed by 5 ml/kg of 30% suspension of hydrated homogenized monkey biscuit measured 9 days post infection; assay type: functional
[39] = test system: Variola virus; assay: Antiviral activity against 1X10'8 PFU Variola virus Harper infected in cynomolgus monkey assessed as white blood cell count in animal at 300 mg/kg/day, po administered 3 days post infection followed by 5 ml/kg of 30% suspension of hydrated homogenized monkey biscuit measured 9 days post infection; assay type: functional
[40] = test system: Variola virus; assay: Antiviral activity against 1X10'8 PFU Variola virus Harper infected in cynomolgus monkey assessed as blood urea nitrogen level in animal at 300 mg/kg/day, po administered 3 days post infection followed by 5 ml/kg of 30% suspension of hydrated homogenized monkey biscuit measured 9 days post infection; assay type: functional
[41] = test system: Cynomolgus monkey; assay: Immunostimulatory activity in cynomolgus monkey infected with 1X10'8 PFU Variola virus Harper assessed as level of IgM at 300 mg/kg/day, po followed by 5 ml/kg of 30% suspension of hydrated homogenized monkey biscuit measured on day 7 by ELISA; assay type: functional, organism-based; details: Macaca fascicularis
[42] = test system: Cynomolgus monkey; assay: Immunostimulatory activity in cynomolgus monkey infected with 1X10'8 PFU Variola virus Harper assessed as level of IgG at 300 mg/kg/day, po followed by 5 ml/kg of 30% suspension of hydrated homogenized monkey biscuit measured on day 7 by ELISA; assay type: functional, organism-based; details: Macaca fascicularis
[43] = test system: Monkeypox virus; assay: Antiviral activity against Monkeypox virus Zaire '79 infected in cynomolgus monkey assessed as survival of monkey at 300 mg/kg/day, po administered 24 hrs post infection followed by 5 ml/kg of 30% suspension of hydrated homogenized monkey biscuit measured after 14 days; assay type: functional, organism-based
[44] = test system: Monkeypox virus; assay: Antiviral activity against Monkeypox virus Zaire '79 infected in cynomolgus monkey assessed as survival of monkey at 300 mg/kg/day, po administered 72 hrs post infection followed by 5 ml/kg of 30% suspension of hydrated homogenized monkey biscuit measured after 14 days; assay type: functional, organism-based
[45] = test system: Monkeypox virus; assay: Antiviral activity against Monkeypox virus Zaire '79 infected in cynomolgus monkey assessed as log decrease in viral load at 300 mg/kg/day, po administered 24 hrs post infection followed by 5 ml/kg of monkey biscuit measured after 14 days; assay type: functional
[46] = test system: Monkeypox virus; assay: Antiviral activity against Monkeypox virus Zaire '79 infected in cynomolgus monkey assessed as log decrease in viral load at 300 mg/kg/day, po administered 72 hrs post infection measured after 14 days; assay type: functional
[47] = test system: Monkeypox virus; assay: Antiviral activity against Monkeypox virus Zaire '79 infected in cynomolgus monkey assessed as inhibition of virus induced skin lesions at 300 mg/kg/day, po administered 24 hrs post infection measured after 14 days; assay type: functional, organism-based

O=C(NN1C(=O)[C@@H]2[C@@H]3C=C[C@@H]([C@H]4C[C@@H]34)[C@@H]2C1=O)c1ccc(C(F)(F)F)cc1 [TECOVIRIMAT]
Activity [1]: Active
Activity [2]: Active
Activity [3]: Active
Activity [4]: Active
Activity [5]: Active
FC [6]: 3
FC [7]: 3
inhibition [8]: Active
inhibition [9]: Active
Activity [10]: 44.3%
Activity [11]: 329 ×10³ /uL
Activity [12]: 31.7 g/dL
Activity [13]: 8.2 ×10³ /uL
Activity [14]: 38 °C
Activity [15]: 2.47 g/dL
Activity [16]: 49.7 U/L
Activity [17]: 277 U/L
Activity [18]: 55 U/L
Activity [19]: 19 mg/dL
Activity [20]: 0.73 mg/dL
Activity [21]: 6.37 g/dL
Activity [22]: 49.6%
Activity [23]: 341 ×10³ /uL
Activity [24]: 31.1 g/dL
Activity [25]: 7.5 ×10³ /uL
Activity [26]: 37.3 °C
Activity [27]: 2.9 g/dL
Activity [28]: 60.3 U/L
Activity [29]: 141 U/L
Activity [30]: 58 U/L
Activity [31]: 18.7 mg/dL
Activity [32]: 0.7 mg/dL
Activity [33]: 6.43 g/dL
Activity [34]: 350 ×10³ /uL
Activity [35]: 30.9 g/dL
Activity [36]: 0.9 mg/dL
Activity [37]: 35.9%
Activity [38]: 406 ×10³ /uL
Activity [39]: 12.3 ×10³ /uL
Activity [40]: 10.7 mg/dL
Activity [41]: Active
Activity [42]: Active
Activity [43]: Active
Activity [44]: Active
FC [45]: 5
FC [46]: 5
Activity [47]: Active
